Structures can show the parent of a compound that is named as a salt.
Columns and labels:
Type in all cases: biochemical
[1] = biological target: T1, Human VAP-1 (Homo sapiens, UniProt Q16853); experiment: VAP-1 inhibition assay (Amplex Red continuous fluorescence assay); conditions: 30 min pre-incubation at 37° C.; substrate benzylamine; read-out: Human VAP-1 IC50
T1 sequence (Q16853 1-763): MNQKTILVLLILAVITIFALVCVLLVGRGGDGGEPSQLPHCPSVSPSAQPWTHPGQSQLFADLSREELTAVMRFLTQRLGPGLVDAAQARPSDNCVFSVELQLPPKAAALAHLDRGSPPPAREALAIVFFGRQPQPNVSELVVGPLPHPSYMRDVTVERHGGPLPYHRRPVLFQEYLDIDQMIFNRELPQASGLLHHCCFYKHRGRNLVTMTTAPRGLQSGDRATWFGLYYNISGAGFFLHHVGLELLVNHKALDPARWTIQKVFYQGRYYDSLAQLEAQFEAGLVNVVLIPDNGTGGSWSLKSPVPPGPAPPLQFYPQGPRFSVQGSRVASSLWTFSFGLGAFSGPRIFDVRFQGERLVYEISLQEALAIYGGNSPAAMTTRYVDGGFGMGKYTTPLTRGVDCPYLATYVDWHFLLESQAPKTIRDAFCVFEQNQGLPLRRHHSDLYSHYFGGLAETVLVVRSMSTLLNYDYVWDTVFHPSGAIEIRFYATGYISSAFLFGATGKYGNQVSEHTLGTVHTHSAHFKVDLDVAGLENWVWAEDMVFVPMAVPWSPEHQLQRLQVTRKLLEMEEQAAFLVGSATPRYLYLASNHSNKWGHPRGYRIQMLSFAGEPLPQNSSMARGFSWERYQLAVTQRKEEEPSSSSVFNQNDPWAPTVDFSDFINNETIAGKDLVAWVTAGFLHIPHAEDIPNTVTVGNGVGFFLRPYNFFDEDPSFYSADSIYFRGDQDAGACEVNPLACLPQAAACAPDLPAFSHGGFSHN
Procedure: (§1) VAP-1, DAO, MAO-A, MAO-B, and HRP activity and inhibition thereof was assessed by means of a continuous fluorescence assay. The Amplex Red Hydrogen Peroxide/Peroxidase Assay (ThermoFisher) was optimized for detecting amine oxidase (AO) activity. In an enzyme-coupled reaction, the H2O2 generated by AO reacts 1:1 with Amplex Red reagent to produce fluorescent product resorufin.
(§2) Assays were typically setup in black 384-well plates using automated liquid handling as follows. VAP-1/MAO assay buffer contains […] sodium phosphate, pH 7.4; DAO assay buffer contains 50 mM HEPES, pH 7.5; HRP assay buffer contains 100 mM CHES, 1 mM MgCl2, 50 mM NaCl, 0.05% BSA, pH 9.0. Inhibitors were serially diluted in DMSO and used to setup 2× mixtures with AO in the aforementioned buffer. After 30 min pre-incubation at 37° C. (VAP-1, HRP) or room temp (DAO, MAO), the reaction was initiated by adding a 2× mix of Amplex Red, HRP (coupling enzyme), and substrate (benzylamine, histamine, tyramine, benzylamine, H2O2, for VAP-1, DAO, MAO-A, MAO-B, and HR, respectively) in the same buffer. Reaction progress curve data were typically collected for 5 min using excitation/emission wavelengths of 510 nm/565 nm on FLIPR-Tetra plate readers (Molecular Devices Inc). Reaction rates were calculated from progress curve slopes typically over 60-150 sec. Dose response curves (rate vs. log inhibitor concentration) were typically fit to a 4-parameter logistic function to extract IC50 values.

[2] = biological target: T2, Human MAO-A (Homo sapiens, UniProt P21397); experiment: MAO-A inhibition (Amplex Red continuous fluorescence assay); conditions: 30 min pre-incubation at room temp; substrate tyramine; read-out: Human MAO-A IC50
T2 sequence (P21397 1-527): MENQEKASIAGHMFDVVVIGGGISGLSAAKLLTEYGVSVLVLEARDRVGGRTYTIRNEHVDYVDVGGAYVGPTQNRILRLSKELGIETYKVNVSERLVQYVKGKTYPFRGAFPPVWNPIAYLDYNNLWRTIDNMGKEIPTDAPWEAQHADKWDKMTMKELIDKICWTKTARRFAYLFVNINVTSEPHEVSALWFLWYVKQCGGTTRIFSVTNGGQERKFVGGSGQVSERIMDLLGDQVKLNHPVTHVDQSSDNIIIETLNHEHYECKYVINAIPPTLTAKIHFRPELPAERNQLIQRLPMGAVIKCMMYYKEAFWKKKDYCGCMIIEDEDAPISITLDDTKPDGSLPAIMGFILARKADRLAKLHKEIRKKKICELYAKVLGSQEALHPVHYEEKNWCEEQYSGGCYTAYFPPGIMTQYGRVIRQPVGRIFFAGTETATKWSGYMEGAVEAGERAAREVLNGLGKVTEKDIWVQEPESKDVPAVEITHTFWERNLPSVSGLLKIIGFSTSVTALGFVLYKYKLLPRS
Procedure: as §1, §2

[3] = biological target: T3, Human MAO-B (Homo sapiens, UniProt P27338); experiment: MAO-B inhibition (Amplex Red continuous fluorescence assay); conditions: 30 min pre-incubation at room temp; substrate benzylamine; read-out: Human MAO-B IC50
T3 sequence (P27338 1-520): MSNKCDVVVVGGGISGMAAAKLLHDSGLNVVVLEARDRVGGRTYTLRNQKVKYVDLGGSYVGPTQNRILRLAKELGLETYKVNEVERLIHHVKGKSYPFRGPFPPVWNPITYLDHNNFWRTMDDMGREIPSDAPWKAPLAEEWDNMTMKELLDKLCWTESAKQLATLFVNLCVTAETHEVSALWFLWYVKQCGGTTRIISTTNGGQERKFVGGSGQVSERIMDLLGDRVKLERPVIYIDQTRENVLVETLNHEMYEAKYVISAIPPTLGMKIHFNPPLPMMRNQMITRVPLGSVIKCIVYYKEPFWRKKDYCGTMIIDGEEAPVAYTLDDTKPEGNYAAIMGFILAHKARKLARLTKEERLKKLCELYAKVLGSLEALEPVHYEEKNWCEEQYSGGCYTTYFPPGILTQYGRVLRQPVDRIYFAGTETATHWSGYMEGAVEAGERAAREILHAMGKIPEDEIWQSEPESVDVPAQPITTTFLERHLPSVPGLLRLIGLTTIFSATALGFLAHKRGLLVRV
Procedure: as §1, §2

[4] = biological target: T4, Human DAO (Homo sapiens, UniProt P19801); experiment: DAO inhibition (Amplex Red continuous fluorescence assay); conditions: 30 min pre-incubation at room temp; substrate histamine; read-out: Human DAO IC50
T4 sequence (P19801 20-751): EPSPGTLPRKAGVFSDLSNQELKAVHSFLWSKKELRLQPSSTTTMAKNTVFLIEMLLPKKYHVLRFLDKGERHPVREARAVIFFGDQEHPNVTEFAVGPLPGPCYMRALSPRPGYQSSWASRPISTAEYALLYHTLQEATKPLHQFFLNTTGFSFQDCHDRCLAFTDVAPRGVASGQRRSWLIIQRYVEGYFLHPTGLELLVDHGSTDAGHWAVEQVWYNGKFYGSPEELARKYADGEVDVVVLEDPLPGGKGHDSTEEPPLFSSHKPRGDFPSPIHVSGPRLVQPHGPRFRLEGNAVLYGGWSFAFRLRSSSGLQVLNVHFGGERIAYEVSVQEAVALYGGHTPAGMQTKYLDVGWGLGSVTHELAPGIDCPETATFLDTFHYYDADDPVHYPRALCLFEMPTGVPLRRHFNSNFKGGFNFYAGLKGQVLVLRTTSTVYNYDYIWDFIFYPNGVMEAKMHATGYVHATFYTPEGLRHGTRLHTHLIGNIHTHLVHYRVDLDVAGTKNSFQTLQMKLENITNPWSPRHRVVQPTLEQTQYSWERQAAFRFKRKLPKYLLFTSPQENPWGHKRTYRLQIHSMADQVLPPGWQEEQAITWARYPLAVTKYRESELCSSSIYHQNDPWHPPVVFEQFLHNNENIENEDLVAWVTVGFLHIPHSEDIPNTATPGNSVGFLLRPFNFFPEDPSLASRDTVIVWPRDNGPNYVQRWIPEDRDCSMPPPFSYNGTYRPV
Procedure: as §1, §2

IC50 [1] | IC50 [2] | IC50 [3] | IC50 [4] | Compound
> 10 µM | > 10 µM | > 10 µM | – | NCC(=CF)CN1CCCCC1 (mixture of isomers) [Compound 12, 3-fluoro-2-(piperidin-1-ylmethyl)prop-2-en-1-amine]
> 10 µM | > 10 µM | > 10 µM | – | CC(=O)N(CC(=CF)CN)C1CCCCC1 (mixture of isomers) [Compound 31, hydrochloride]
> 10 µM | > 10 µM | > 10 µM | – | CC(=O)N(C/C(=C/F)CN)c1ccccc1 [Compound 1, (E)-N-(2-(aminomethyl)-3-fluoroalkyl)-N-phenylacetamide hydrochloride]
3 to 10 µM | > 10 µM | > 10 µM | – | NC/C(=C\F)COc1cccc2[nH]cnc12 [Compound 2, hydrochloride]
< 3 µM | > 10 µM | < 3 µM | > 10 µM | NC/C(=C\F)CNc1ccccc1 [Compound 3, (E)-2-(fluoromethylene)-N^1-phenylpropane-1,3-diamine hydrochloride]
< 3 µM | > 10 µM | > 10 µM | < 3 µM | NC/C(=C\F)COc1ccc(-c2ncc[nH]2)cc1 [Compound 4, (E)-2-((4-(1H-imidazol-2-yl)phenoxy)methyl)-3-fluoroprop-2-en-1-amine]
< 3 µM | < 3 µM | < 3 µM | > 10 µM | NC/C(=C\F)COCc1ccccc1 [Compound 5, (E)-2-((benzyloxy)methyl)-3-fluoroprop-2-en-1-amine hydrochloride]
< 3 µM | < 3 µM | < 3 µM | 3 to 10 µM | NC/C(=C/F)COCc1ccccc1 [Compound 6, (Z)-2-((benzyloxy)methyl)-3-fluoroprop-2-en-1-amine hydrochloride]
< 3 µM | 3 to 10 µM | < 3 µM | 3 to 10 µM | CCNC(=O)Nc1ccc(OC/C(=C/F)CN)cc1 [Compound 7, (E)-1-(4-((2-(aminomethyl)-3-fluoroalkyl)oxy)phenyl)-3-ethylurea hydrochloride]
< 3 µM | < 3 µM | < 3 µM | < 3 µM | NC/C(=C\F)COc1cccc2scnc12 [Compound 8, (E)-2-((benzo[d]thiazol-4-yloxy)methyl)-3-fluoroprop-2-en-1-amine hydrochloride]
< 3 µM | 3 to 10 µM | < 3 µM | > 10 µM | NC/C(=C/F)COc1cccc2scnc12 [Compound 9, (Z)-2-((benzo[d]thiazol-4-yloxy)methyl)-3-fluoroprop-2-en-1-amine hydrochloride]
< 3 µM | > 10 µM | < 3 µM | < 3 µM | NC/C(=C\F)COc1ccc(-c2nc3ccccc3[nH]2)cc1 [Compound 10, (E)-2-((4-(1H-benzo[d]imidazol-2-yl)phenoxy)methyl)-3-fluoroprop-2-en-1-amine hydrochloride]
3 to 10 µM | > 10 µM | > 10 µM | – | NC/C(=C\F)CNS(=O)(=O)c1ccccc1 [Compound 17, (E)-N-(2-(aminomethyl)-3-fluoroalkyl)benzenesulfonamide hydrochloride]
> 10 µM | > 10 µM | 3 to 10 µM | – | NC/C(=C\F)CNC1CCCCC1 [Compound 22, (E)-N1-cyclohexyl-2-(fluoromethylene)propane-1,3-diamine]
< 3 µM | > 10 µM | < 3 µM | – | Cn1ccnc1-c1ccc(OC/C(=C/F)CN)cc1 [Compound 27, (E)-3-fluoro-2-((4-(1-methyl-1H-imidazol-2-yl)phenoxy)methyl)prop-2-en-1-aminedihydrochloride]
> 10 µM | > 10 µM | > 10 µM | – | CC(=O)N(CC(=CF)CN)Cc1ccccc1 [Compound 32]
– | > 10 µM | < 3 µM | < 3 µM | NC/C(=C\F)COc1ccc(C(=O)NCCCCCNC(=O)CCCCC2SCC3NC(=O)NC32)cc1 (centres unmarked) [Compound 76, (E)-4-((2-(aminomethyl)-3-fluoroalkyl)oxy)-N-(5-(5-(2-oxohexahydro-1H-thieno[3,4-d]imidazol-4-yl)pentanamido)pentyl)benzamide]
– | > 10 µM | 3 to 10 µM | < 3 µM | NC/C(=C\F)COc1ccc(C(=O)NCCOCCOCCOCCNC(=O)CCCCC2SCC3NC(=O)NC32)cc1 (centres unmarked) [Compound 77, (E)-4-((2-(aminomethyl)-3-fluoroalkyl)oxy)-N-(13-oxo-17-(2-oxohexahydro-1H-thieno[3,4-d]imidazol-4-yl)-3,6,9-trioxa-12-azaheptadecyl)benzamide]

— patent US20210238192A1, “VASCULAR ADHESION PROTEIN-1 (VAP-1) MODULATORS AND THERAPEUTIC USES THEREOF” (Blade Therapeutics, Inc., priority 2018, published 2021)
